Experimental findings from paper doi:10.1101/2024.06.25.600598v1 (biorxiv, 2024) are described below.

Test [1] deals with T1, fibroblast activation protein (FAP; rhFAP, SLIN-tagged hFAP) (Homo sapiens, UniProt Q12884).
T1 sequence (Q12884 35-760): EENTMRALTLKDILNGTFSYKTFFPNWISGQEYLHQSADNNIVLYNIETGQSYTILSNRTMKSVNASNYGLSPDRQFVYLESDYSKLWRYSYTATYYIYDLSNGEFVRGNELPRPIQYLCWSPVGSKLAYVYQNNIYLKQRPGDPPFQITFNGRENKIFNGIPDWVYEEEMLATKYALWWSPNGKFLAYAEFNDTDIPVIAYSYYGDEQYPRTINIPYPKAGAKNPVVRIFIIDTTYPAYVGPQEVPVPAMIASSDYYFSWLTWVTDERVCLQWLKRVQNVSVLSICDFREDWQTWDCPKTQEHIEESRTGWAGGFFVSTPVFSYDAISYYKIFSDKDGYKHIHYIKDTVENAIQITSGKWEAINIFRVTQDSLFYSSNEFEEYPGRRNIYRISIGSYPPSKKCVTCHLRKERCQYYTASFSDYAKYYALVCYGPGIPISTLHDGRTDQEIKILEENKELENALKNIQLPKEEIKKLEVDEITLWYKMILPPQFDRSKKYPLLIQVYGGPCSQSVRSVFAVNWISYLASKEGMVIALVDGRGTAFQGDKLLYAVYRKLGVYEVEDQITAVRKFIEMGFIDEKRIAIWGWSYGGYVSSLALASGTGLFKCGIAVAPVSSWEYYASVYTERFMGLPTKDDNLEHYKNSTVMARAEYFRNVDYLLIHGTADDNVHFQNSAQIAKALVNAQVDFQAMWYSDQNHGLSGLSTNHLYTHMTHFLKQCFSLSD
In words: biochemical.

Test [2] has as its target T1, fibroblast activation protein (FAP; rhFAP, SLIN-tagged hFAP). Particulars: 2 µM; inhibitor.
Test [3] shares this target. In words: DIANA competition with DNA-linked probe, qPCR. The format is binding. For orientation: Real-time PCR tracks product formation cycle by cycle.
Test [4] shares this target. The experiment in a line: biochemical. The format is binding.
Test [5] has the same target. The experiment in a line: fluorogenic AMC substrate activity assay. The test is classed as biochemical.

Counter-ions that a name gives are not always drawn.

One may read the Ki as a measure of affinity in units of concentration, obtained from inhibition or displacement. Low readings indicate tighter binding, high ones weaker binding. For `CC1(C)C(/C=C/C=C/C=C/C=C2\N(CCCCS(=O)(=O)O)c3ccc4ccccc4c3C2(C)C)=[N+](CCCCS(=O)(=O)[O-])c2ccc3ccccc3c21` [Indocyanine green], the inhibitory constant (Ki) in test [1] amounted to 4.1 µM. In addition, the “Relative inhibition (%), activity assay” value in test [2] is given as 20%.
As to `CNC(=O)c1ccc(-c2cnc3ncc(Cc4ccc5ncccc5c4)n3n2)cc1F` [Capmatinib], affinity in test [1] was put at a Ki of 3.3 µM. The “Relative inhibition (%), activity assay” value in test [2] is 27%.
Compound `Cc1ccc(C)c(CNC(=O)C(=O)[C@@H]2CCCN2C(=O)CNC(=O)c2ccnc3ccccc23)c1` [6f] showed a Ki in test [3] of 0.0007 ± 0.0001 µM.
`CC(=O)[C@]1(O)Cc2c(O)c3c(c(O)c2[C@@H](O[C@H]2C[C@H](N)[C@H](O)[C@H](C)O2)C1)C(=O)c1ccccc1C3=O` [Idarubicin (hydrochloride)] showed an inhibition constant Ki in test [1] of 3.6 µM. Also, the “Relative inhibition (%), activity assay” value in test [2] was found to be 19%.
Consider `O=C1OC2(c3cc(I)c(O)c(I)c3Oc3c2cc(I)c(O)c3I)c2c(Cl)c(Cl)c(Cl)c(Cl)c21` [rose bengal], for which the “Relative inhibition (%), activity assay” value in test [2] is on record as 9%. Besides, in test [4], the inhibition constant Ki stood at 0.1 µM.
The like results for `CC(C)(C)C(=O)OCOC(=O)[C@@H]1N2C(=O)[C@@H](N=CN3CCCCCC3)[C@H]2SC1(C)C` [pivmecillinam] were, in that order, 45% and 2.2 µM.
The compound `COc1cccc2c1C(=O)c1c(O)c3c(c(O)c1C2=O)C[C@@](O)(C(=O)CO)C[C@@H]3O[C@H]1C[C@H](N)[C@H](O[C@@H]2CCCCO2)[C@H](C)O1` [Pirarubicin (Hydrochloride)] had an inhibition constant Ki in test [1] of 0.6 µM. The “Relative inhibition (%), activity assay” value in test [2] was determined as 19%.
In test [1], `C[n+]1cc2c3c(ccc2c2ccc4cc5c(cc4c21)OCO5)OCO3` [Sanguinarine (chloride)] had an inhibitory constant (Ki) of 7.2 µM. Further, the “Relative inhibition (%), activity assay” value in test [2] is on record as 13%.
The like results for `Cc1ccc(C(=O)Nc2ccc(S(=O)(=O)O)c3cc(S(=O)(=O)O)cc(S(=O)(=O)O)c23)cc1NC(=O)c1cccc(NC(=O)Nc2cccc(C(=O)Nc3cc(C(=O)Nc4ccc(S(=O)(=O)O)c5cc(S(=O)(=O)O)cc(S(=O)(=O)O)c45)ccc3C)c2)c1` [Suramin (sodium salt)] were, in that order, 9.1 µM and 12%.
The like results for `CC(=O)OCC1=C(C(=O)O)N2C(=O)[C@@H](NC(=O)CSc3ccncc3)[C@H]2SC1` [Cephapirin (sodium)] were, in that order, 7.6 µM and 18%.
The matching figures for `CN1CCN(c2ccc(Nc3ncc4cc5n(c4n3)C3(CCCCC3)CNC5=O)nc2)CC1` [Trilaciclib (hydrochloride)]: 5.9 µM and 19%.
Regarding `Cc1cc(-c2ccc(/N=N/c3ccc4c(S(=O)(=O)O)cc(S(=O)(=O)O)c(N)c4c3O)c(C)c2)ccc1/N=N/c1ccc2c(S(=O)(=O)O)cc(S(=O)(=O)O)c(N)c2c1O` [Evans Blue], the affinity in test [1] corresponds to a Ki of 5.7 µM. Besides, the “Relative inhibition (%), activity assay” value in test [2] was 21%.
In test [1], `COc1cc2/c(=N/c3ccc(Br)cc3F)nc[nH]c2cc1OCC1CCN(C)CC1` [Vandetanib] displayed a Ki of 9.4 µM. Also, the “Relative inhibition (%), activity assay” value in test [2] is listed as 29%.
`CCc1c(Cl)c(O)c(Cl)c(O)c1C(=O)O[C@H]1[C@H](O)[C@H](OC)[C@H](OC/C2=C\C=C\C[C@H](O)/C(C)=C/[C@H](CC)[C@@H](O[C@@H]3OC(C)(C)[C@@H](OC(=O)C(C)C)[C@H](O)[C@@H]3O)/C(C)=C/C(C)=C/C[C@@H]([C@@H](C)O)OC2=O)O[C@@H]1C` [Fidaxomicin] displayed an inhibitory constant (Ki) in test [1] of 6.9 µM. For the same compound, in test [2], the “Relative inhibition (%), activity assay” value is 10%.
The like results for `CC(=C(CCOC(=O)C(C)C)SSC(CCOC(=O)C(C)C)=C(C)N(C=O)Cc1cnc(C)nc1N)N(C=O)Cc1cnc(C)nc1N` (stereo in doubt) [Sulbutiamine] were, in that order, 5.8 µM and 15%.
The like results for `CCOC(=O)n1ccn(C)c1=S` [Carbimazole] were, in that order, 7.9 µM and 26%.
For `CCN(c1cc(-c2ccc(CN3CCOCC3)cc2)cc(C(=O)NCc2c(C)cc(C)[nH]c2=O)c1C)C1CCOCC1` [Tazemetostat (hydrobromide)], the Ki in test [1] was 8.7 µM. Besides, the “Relative inhibition (%), activity assay” value in test [2] was 22%.
Turning to `C=CC1=C(C)c2cc3[nH]c(cc4nc(cc5[nH]c(cc1n2)c(C)c5CCC(=O)O)C(CCC(=O)O)=C4C)c(C)c3C=C` [protoporphyrin IX], the “Relative inhibition (%), activity assay” value in test [2] came out at 46%. This compound returned a Ki in test [4] of 0.8 µM.
In test [1], `CCN1CCN(Cc2ccc(Nc3ncc(F)c(-c4cc(F)c5nc(C)n(C(C)C)c5c4)n3)nc2)CC1` [Abemaciclib (methanesulfonate)] displayed a Ki of 0.8 µM. Besides, the “Relative inhibition (%), activity assay” value in test [2] was 5%.
For the compound `CCOc1nc2cccc(C(=O)OCc3oc(=O)oc3C)c2n1Cc1ccc(-c2ccccc2-c2noc(=O)[nH]2)cc1` [Azilsartan medoxomil], the affinity in test [1] corresponds to a Ki of 3.9 µM. For the same compound, the “Relative inhibition (%), activity assay” value in test [2] is listed as 11%.
The like results for `COc1cccc2c1C(=O)c1c(O)c3c(c(O)c1C2=O)C[C@@](O)(C(C)=O)C[C@@H]3O[C@H]1C[C@H](N)[C@H](O)[C@H](C)O1` [Daunorubicin (hydrochloride)] were, in that order, 6.4 µM and 23%.
In test [1], `CCOc1ccc(Nc2ccc(/C(=C3/C=CC(=[N+](CC)Cc4cccc(S(=O)(=O)[O-])c4)C=C3C)c3ccc(N(CC)Cc4cccc(S(=O)(=O)O)c4)cc3C)cc2)cc1` [Brilliant blue G-250] came in with an inhibition constant (Ki) of 0.9 µM. In addition, in test [2], the “Relative inhibition (%), activity assay” value was determined as 28%.
The like results for `CCC1=C(C)CN(C(=O)NCCc2ccc(S(=O)(=O)NC(=O)N[C@H]3CC[C@H](C)CC3)cc2)C1=O` [Glimepiride] were, in that order, 8.8 µM and 16%.
The like results for `CC/C=C\C/C=C\C/C=C\C/C=C\C/C=C\C/C=C\CCC(=O)O` [Docosahexaenoic acid] were, in that order, 5.5 µM and 10%.
As usually defined, the IC50 is the point on the concentration scale where inhibition reaches its midpoint. Read a low IC50 as higher potency. The compound `O=C1OC2(c3ccc(O)cc3Oc3cc(O)ccc32)c2ccccc21` [Fluorescein (sodium)] yielded a 50% inhibitory concentration (IC50) in test [5] greater than 20 µM.
Compound `C=CC1=C(C)C2=Cc3c(C=C)c(C)c4[n]3[Fe]([Cl])[n]3c(c(C)c(CCC(=O)O)c3=CC3=NC(=C4)C(C)=C3CCC(=O)O)=CC1=N2` [hemin] gave a Ki in test [4] of 0.6 µM. In other words, the sub-micromolar range.
`Cc1cnc(C(=O)N[C@H]2CCCCC/C=C\[C@@H]3C[C@@]3(C(=O)NS(=O)(=O)C3CC3)NC(=O)[C@@H]3C[C@@H](Oc4nc5ccccc5c5ccccc45)CN3C2=O)cn1` [Paritaprevir] displayed a Ki in test [1] of 9.7 µM. Further, the “Relative inhibition (%), activity assay” value in test [2] came to 35%.
`COc1ccc(-c2cc(=O)c3c(O)c(OC)c(O)cc3o2)cc1OC` [Eupatilin]: the inhibitory constant (Ki) in test [1] stood at 2 µM. For the same compound, the “Relative inhibition (%), activity assay” value in test [2] came to 16%.
The matching figures for `CCCC(=O)OCOC(=O)C1=C(C)NC(C)=C(C(=O)OC)C1c1cccc(Cl)c1Cl` (stereo not shown) [Clevidipine]: 1.7 µM and 35%.
The compound `C[C@@H](O)[C@H]1C(=O)N2C(C(=O)OCOC(=O)C(C)(C)C)=C(SC3CN(C4=NCCS4)C3)[C@H](C)[C@H]12` [Tebipenem pivoxil] showed a Ki in test [4] of 0.64 µM.
Compound `CCN1CCN(C(=O)N[C@@H](C(=O)N[C@@H]2C(=O)N3C(C(=O)O)=C(CSc4nnnn4C)CS[C@H]23)c2ccc(O)cc2)C(=O)C1=O` [Cefoperazone (sodium salt)] displayed a Ki in test [1] of 3.9 µM. The “Relative inhibition (%), activity assay” value in test [2] is reported as 25%.
The like results for `CCN(CC)CCOc1ccc2c(c1)C(=O)c1cc(OCCN(CC)CC)ccc1-2` [Tilorone (dihydrochloride)] were, in that order, 2.9 µM and 30%.
The like results for `COc1ccc2nc3cc(Cl)ccc3c(Nc3cc(CN4CCCC4)c(O)c(CN4CCCC4)c3)c2n1` [Pyronaridine (tetraphosphate)] were, in that order, 7.1 µM and 19%.
In the case of `C=Cc1c(C)c2cc3nc(c(CC(=O)N[C@@H](CC(=O)O)C(=O)O)c4[nH]c(cc5nc(cc1[nH]2)C(C)=C5CC)c(C)c4C(=O)O)[C@@H](CCC(=O)O)[C@@H]3C` [Talaporfin (sodium)], in test [1], the Ki was 3 µM. Besides, the “Relative inhibition (%), activity assay” value in test [2] amounted to 12%.
